Columns and labels:
[1] = system: endogenous, full-length WIZ; details: WSU-DLCL2 and TMD8 cells; cited from earlier work
IKZF2 ZF2 = IKZF2 ZF2 (Homo sapiens, UniProt Q96SW2+Q9UKS7); experiment: Degradation reporter analysis of IKZF2 ZF2; type: cell-based
[2] = target: human C2H2 ZF library in HEK293T cells (Homo sapiens, UniProt Q9UKS7); experiment: C2H2 zinc finger library screen; type: cell-based; details: 1 μM, 20 hours
[3] = target: CRBN-pomalidomide (Alexa488DDB1ΔB-CRBN-pomalidomide-biotinIKZF1 ZF1-2-3) (Homo sapiens, UniProt Q96SW2)
[4] = system: ZFs that bound CRBN-pomalidomide in the biochemical assay; type: cell-based, human; details: WIZ ZF7, cells
[5] = system: human C2H2 ZF library in HEK293T cells; experiment: C2H2 zinc finger library screen; type: cell-based; details: FDR <0.01, 5,611 ZFs assayed, 1 μM, 20 hours

Chain of IKZF2 ZF2 (Q9UKS7 140-162 limits assumed): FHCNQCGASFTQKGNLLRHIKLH
Chain of IKZF2 ZF2 (Q96SW2 whole entry): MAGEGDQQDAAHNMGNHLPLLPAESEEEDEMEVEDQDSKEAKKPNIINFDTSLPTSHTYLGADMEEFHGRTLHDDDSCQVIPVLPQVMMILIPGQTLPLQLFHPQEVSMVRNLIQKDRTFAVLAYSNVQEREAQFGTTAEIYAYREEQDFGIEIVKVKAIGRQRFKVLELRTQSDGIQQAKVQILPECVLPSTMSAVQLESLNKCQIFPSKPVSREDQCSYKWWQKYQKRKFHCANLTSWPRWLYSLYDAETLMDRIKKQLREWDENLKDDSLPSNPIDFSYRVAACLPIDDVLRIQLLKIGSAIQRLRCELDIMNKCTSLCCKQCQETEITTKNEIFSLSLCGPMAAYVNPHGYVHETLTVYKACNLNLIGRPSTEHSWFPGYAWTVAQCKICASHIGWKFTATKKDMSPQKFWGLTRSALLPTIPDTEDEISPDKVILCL
Chain of IKZF2 ZF2 (Q16531 2-1140 partner limits assumed): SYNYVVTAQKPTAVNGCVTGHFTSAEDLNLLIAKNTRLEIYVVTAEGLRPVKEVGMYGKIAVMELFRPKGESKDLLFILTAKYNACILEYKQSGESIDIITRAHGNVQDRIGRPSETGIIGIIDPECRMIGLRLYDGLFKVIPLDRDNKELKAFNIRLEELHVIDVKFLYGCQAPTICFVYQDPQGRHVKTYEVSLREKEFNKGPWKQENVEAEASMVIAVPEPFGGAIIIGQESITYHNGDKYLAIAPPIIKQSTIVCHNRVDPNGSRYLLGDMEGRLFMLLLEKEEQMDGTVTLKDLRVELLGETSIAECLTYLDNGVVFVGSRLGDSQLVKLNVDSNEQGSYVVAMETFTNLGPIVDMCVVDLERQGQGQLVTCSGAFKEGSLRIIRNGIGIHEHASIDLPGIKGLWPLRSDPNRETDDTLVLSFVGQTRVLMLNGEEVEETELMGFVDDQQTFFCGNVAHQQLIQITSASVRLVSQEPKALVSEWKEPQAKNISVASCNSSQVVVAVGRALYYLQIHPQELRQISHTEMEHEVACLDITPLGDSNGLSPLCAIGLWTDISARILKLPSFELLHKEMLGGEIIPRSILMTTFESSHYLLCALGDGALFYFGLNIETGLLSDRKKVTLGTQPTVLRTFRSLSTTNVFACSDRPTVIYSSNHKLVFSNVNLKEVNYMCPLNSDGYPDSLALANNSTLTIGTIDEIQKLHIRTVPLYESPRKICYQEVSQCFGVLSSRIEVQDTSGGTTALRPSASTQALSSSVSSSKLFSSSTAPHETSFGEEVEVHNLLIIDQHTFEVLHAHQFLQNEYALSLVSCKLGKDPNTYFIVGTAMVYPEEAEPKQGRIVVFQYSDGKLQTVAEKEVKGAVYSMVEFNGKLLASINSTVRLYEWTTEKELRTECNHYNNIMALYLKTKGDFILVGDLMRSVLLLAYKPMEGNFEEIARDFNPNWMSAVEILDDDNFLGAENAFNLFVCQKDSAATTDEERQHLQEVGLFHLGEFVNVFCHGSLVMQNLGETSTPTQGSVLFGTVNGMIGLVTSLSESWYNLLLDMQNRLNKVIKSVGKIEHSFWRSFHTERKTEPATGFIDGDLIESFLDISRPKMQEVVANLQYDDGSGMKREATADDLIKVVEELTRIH
Chain of human C2H2 ZF library in HEK293T cells (Homo sapiens, UniProt Q9UKS7) (Q96SW2 whole entry partner): as the sequence (Q96SW2 whole entry) above
Chain of CRBN-pomalidomide (Alexa488DDB1ΔB-CRBN-pomalidomide-biotinIKZF1 ZF1-2-3) (Q96SW2 whole entry, stated change not applied): as the sequence (Q96SW2 whole entry) above

degradation of IKZF2 ZF2 (in words) (IKZF2 ZF2)	degradation of the IKZF2 ZF2 reporter (IKZF2 ZF2; validation experiments)	degradation of IKZF2 ZF2 in the C2H2 ZF library screen [2]	Compound	degradation of endogenous, full-length WIZ [1]	factor of decrease in binding affinity, ZF2-ZF1 versus ZF2-ZF3 [3]	degradation of WIZ ZF7 in the degradation reporter [4]	number of C2H2 ZFs depleted [5]
not degraded	–	–	Cc1nc2cccc(N)c2c(=O)n1C1CCC(=O)NC1=O (stereo not shown) [CC-122]	confirmed degradation	–	–	–
efficiently degraded	more than 40%	selectively degraded	O=C1CC[C@H](N2Cc3c(OCc4ccc(CN5CCOCC5)cc4)cccc3C2=O)C(=O)N1 [CC-220]	–	–	–	–
–	–	–	Nc1cccc2c1CN(C1CCC(=O)NC1=O)C2=O (stereo not shown) [lenalidomide]	confirmed degradation	–	–	–

Compound	degradation of IKZF2 ZF2 (in words) (IKZF2 ZF2)	degradation of the IKZF2 ZF2 reporter (IKZF2 ZF2; validation experiments)	degradation of IKZF2 ZF2 in the C2H2 ZF library screen [2]	degradation of endogenous, full-length WIZ [1]	factor of decrease in binding affinity, ZF2-ZF1 versus ZF2-ZF3 [3]	degradation of WIZ ZF7 in the degradation reporter [4]	number of C2H2 ZFs depleted [5]
Nc1cccc2c1C(=O)N(C1CCC(=O)NC1=O)C2=O (stereo not shown) [pomalidomide]	not degraded	–	–	–	6	partial degradation	11
